# Assay results reported in ChEMBL document CHEMBL1201862, “PubChem BioAssay data set” (2004).
# Active and inactive are the calls of the source.
# Assays:
# [1] = rise of 2N DNA cells, HeLa – IC50, dose response (AID 1117349); type: functional, cell-based
# [2] = CellTiter-Glo luminescence survival assay, SW480 colon tumor line, concentration-response curve, half-maximal inhibitory concentration (AID 1117338); type: functional
# [3] = RKO cell viability reduction, dose response, CellTiter-Glo luminescence (AID 1117322); type: functional
# [4] = SNU-C1 cell viability reduction, dose response, CellTiter-Glo luminescence (AID 1117323); type: functional, cell-based
# [5] = cytotoxicity toward Colo320 cells – cell-based, CellTiter-Glo luminescence, IC50, dose response (AID 1117334); type: functional; settings: COLO 320
# [6] = rise of 4N DNA cells, HeLa – IC50, dose response (AID 1117351); type: functional, cell-based
# [7] = cytotoxicity toward HT-29 cells – cell-based, CellTiter-Glo luminescence, IC50, dose response (AID 1117330); type: functional
# [8] = Reduced DLD-1 viability, concentration-response, CellTiter-Glo luminescence (AID 1117352); type: functional
# [9] = Luminescence Cell-Based Dose Confirmation HTS to Identify Activators of 5'UTR Stem-Loop Driven Alpha-Synuclein mRNA Translation in H4 Neuroglioblastoma Cells. [Related pubchem assays: 1829 (Project Summary), 1814 (Primary HTS)]; type: functional
# [10] = Luminescence Cell-Based Dose Response HTS to Identify Activators of Luciferase Translation or Activity in H4 […] Cells. [Related pubchem assays: 1829 (Project Summary), 1814 (Primary HTS)]; type: functional
# H4 = assay: Luminescence Cell-Based Dose Response HTS to Identify Activators of 5'UTR Stem-Loop Driven Prion Protein mRNA Translation in H4 Neuroglioblastoma Cells. [Related pubchem assays: 1829 (Project Summary), 1814 (Primary HTS)]; type: functional; settings: Homo sapiens
# [11] = HIV-1 Vif–A3G interaction blockers – biochemical, TR-FRET, GST-Vif 1-94, biotin-A3G peptide, dose response retest, primary screen (AID 1117319); type: functional;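 further: TR-FRET signal of purified GST-Vif binding a biotinylated A3G peptide; inhibitors lower the FRET signal by blocking Vif and A3G binding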
# [12] = biological target: Induced myeloid leukemia cell differentiation protein Mcl-1 (Homo sapiens, UniProt Q07820); assay: blockers of MCL1 binding to BIM peptide – biochemical, fluorescence polarization, BIM-BH3 peptide, 1536-well, dose response (AID 2217)
# Bcl-2-like protein 1 = Bcl-2-like protein 1 (Homo sapiens, UniProt Q07817); assay: blockers of BCLXL peptide binding – biochemical, fluorescence polarization, 1536-well, selectivity assay for MCL1 inhibitor project, dose response (AID 2218)
# Estrogen receptor beta [13] = biological target: T1, Estrogen receptor beta (Homo sapiens, UniProt Q92731);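 further: recombinant ER-beta bound to coactivator SRC1 peptide in presence of estradiol agonist; inhibitors block coactivator peptide binding and lower the FRET signal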
# Estrogen receptor beta [14] = biological target: T1, Estrogen receptor beta; assay: blockers of SRC-3 recruitment to ERβ – biochemical, ELISA, streptavidin-HRP readout, orthogonal assay, confirmation (AID 1060)
# [15] = biological target: T2, Carboxy-terminal domain RNA polymerase II polypeptide A small phosphatase 1 (Homo sapiens, UniProt Q9GZU7); assay: CTDSP1 inhibitors, concentration-response, biochemical, absorbance readout, ultra-high-throughput screen actives (AID 540297); type: functional
# T2 sequence (Q9GZU7 whole entry): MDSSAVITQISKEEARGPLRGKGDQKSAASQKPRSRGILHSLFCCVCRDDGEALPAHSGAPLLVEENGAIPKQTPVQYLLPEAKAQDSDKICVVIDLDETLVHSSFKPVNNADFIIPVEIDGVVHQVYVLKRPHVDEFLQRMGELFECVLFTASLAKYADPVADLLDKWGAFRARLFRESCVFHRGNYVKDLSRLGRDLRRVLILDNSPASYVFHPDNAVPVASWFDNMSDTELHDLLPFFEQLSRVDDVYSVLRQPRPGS
# [16] = biological target: T3, Tyrosine-protein phosphatase non-receptor type 7 (Homo sapiens, UniProt P35236); assay: HePTP tyrosine phosphatase activity blockers – biochemical, absorbance, leukemia target, primary screen (AID 521); type: functional
# T3 sequence (P35236 whole entry): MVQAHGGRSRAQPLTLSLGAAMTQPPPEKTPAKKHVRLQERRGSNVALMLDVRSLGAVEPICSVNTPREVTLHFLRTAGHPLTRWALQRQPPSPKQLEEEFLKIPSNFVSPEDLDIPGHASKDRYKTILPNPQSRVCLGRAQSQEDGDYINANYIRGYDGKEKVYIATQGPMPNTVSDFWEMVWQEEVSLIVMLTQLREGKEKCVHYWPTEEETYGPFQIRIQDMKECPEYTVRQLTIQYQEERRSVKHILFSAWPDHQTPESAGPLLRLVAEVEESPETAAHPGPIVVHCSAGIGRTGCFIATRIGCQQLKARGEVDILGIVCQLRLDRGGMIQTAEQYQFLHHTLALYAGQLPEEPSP
# [17] = Luminescence Cell-Based Dose Response to Identify Activators of 5'UTR Stem-Loop Driven Prion Protein mRNA Translation in H4-C Neuroglioblastoma Cells. [Related pubchem assays: 1829 (Project Summary), 1814 (Primary HTS)]; type: functional
# [18] = Luminescence Cell-Based Dose Response to Identify Activators of Luciferase Translation or Activity in H4-C Neuroglioblastoma Cells. [Related pubchem assays: 1829 (Project Summary), 1814 (Primary HTS)]; type: functional
# [19] = Luminescence Cell-Based Dose Confirmation to Identify Activators of 5'UTR Stem-Loop Driven Alpha-Synuclein mRNA Translation in H4 Neuroglioblastoma Cells. [Related pubchem assays: 1829 (Project Summary), 1814 (Primary HTS)]; type: functional
# [20] = viability of uninfected HEp-2 cells – cell-based, HTS, cytotoxicity control for RSV inhibitor project, dose response (AID 2410); type: functional; settings: human respiratory syncytial virus
# [21] = HPDE-C7 pancreatic duct cell viability loss – fluorescence, HTS (AID 430); type: functional, cell-based; settings: Homo sapiens
# [22] = viability loss of HPDE-C7K cells – cell-based, fluorescence, HTS, primary screen (AID 431); type: functional; settings: Homo sapiens
# [23] = viability of PTEN-deleted HCT116 cells – cell-based, HCT116 PTEN knockout, dose response (AID 1047); type: functional;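 further: HCT116 colon tumor cells with PTEN knocked out; cells exposed to compound for 60 hours before readout; potency for loss of cell viability measured by luminescence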
# [24] = viability of HCT116 lacking mutant beta-catenin – cell-based, human colon tumor, dose response (AID 1045); type: functional;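 further: HCT116 colon tumor cells with beta catenin knocked out; cells exposed to compound for 60 hours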
# [25] = biological target: Dual specificity tyrosine-phosphorylation-regulated kinase 1A (Rattus norvegicus, UniProt Q63470); type: biochemical, Homo sapiens
# [26] = biological target: T4, DNA repair protein RAD52 homolog (Homo sapiens, UniProt P43351); type: functional, biochemical
# T4 sequence (P43351 whole entry): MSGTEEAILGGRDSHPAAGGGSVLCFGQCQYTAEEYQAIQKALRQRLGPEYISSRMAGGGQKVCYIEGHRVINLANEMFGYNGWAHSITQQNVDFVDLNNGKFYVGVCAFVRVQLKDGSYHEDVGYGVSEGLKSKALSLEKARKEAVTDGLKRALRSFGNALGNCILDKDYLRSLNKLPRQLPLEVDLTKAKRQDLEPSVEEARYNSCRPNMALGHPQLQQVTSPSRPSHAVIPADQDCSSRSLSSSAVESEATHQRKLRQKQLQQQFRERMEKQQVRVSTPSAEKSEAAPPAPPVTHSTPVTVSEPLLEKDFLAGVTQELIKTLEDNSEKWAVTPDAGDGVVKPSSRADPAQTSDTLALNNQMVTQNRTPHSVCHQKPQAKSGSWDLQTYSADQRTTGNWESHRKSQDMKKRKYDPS
# [27] = biological target: T5, RNA-binding protein pos-1 (Caenorhabditis elegans, UniProt G5EF15); assay: disruptors of C. elegans POS-1 RNA interaction – biochemical, fluorescence polarization, dose response (AID 1964);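 further: purified POS-1 fused to maltose binding protein made in E. coli; potency of compounds blocking POS-1 binding to fluorescent RNA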
# T5 sequence (G5EF15 whole entry): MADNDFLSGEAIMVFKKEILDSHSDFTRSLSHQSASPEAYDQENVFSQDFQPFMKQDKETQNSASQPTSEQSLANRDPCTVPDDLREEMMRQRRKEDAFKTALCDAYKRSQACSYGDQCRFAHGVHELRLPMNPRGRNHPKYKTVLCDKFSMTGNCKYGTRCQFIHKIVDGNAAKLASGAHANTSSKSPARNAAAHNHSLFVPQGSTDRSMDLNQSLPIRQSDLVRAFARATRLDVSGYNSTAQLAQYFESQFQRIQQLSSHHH
# [28] = biological target: T6, Zinc finger protein mex-5 (Caenorhabditis elegans, UniProt Q9XUB2); assay: potency of MEX-5 RNA-binding blockers – biochemical, C. elegans, fluorescence polarization, dose response (AID 1960)
# T6 sequence (Q9XUB2 whole entry): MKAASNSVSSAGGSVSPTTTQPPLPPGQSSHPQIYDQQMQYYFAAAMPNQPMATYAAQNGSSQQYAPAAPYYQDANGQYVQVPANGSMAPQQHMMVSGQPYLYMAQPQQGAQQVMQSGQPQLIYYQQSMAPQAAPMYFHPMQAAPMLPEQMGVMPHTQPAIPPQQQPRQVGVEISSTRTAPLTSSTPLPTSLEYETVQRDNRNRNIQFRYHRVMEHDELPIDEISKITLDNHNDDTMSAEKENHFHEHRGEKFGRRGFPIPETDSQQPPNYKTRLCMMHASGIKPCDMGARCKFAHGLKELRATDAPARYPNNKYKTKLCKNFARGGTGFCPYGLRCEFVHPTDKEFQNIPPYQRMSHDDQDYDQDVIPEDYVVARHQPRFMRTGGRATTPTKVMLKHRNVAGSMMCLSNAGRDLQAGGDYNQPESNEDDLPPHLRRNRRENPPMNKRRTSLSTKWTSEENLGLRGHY
# [29] = Luminescence Cell-Based Dose Retest to Confirm Inhibitors of Cancer Stem Cells. [Related pubchem assays (depositor defined):AID2717, AID2721]; type: functional; settings: Homo sapiens
# [30] = viability loss of HMLE_sh_eGFP cells – cell-based, luminescence, counter-screen for HMLE_sh_ECad selective toxicity project, dose response (AID 463074); type: functional, Homo sapiens;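 further: HMLE human mammary epithelial cells expressing control shRNA against eGFP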
# [31] = biological target: 26S proteasome non-ATPase regulatory subunit 14 (Homo sapiens, UniProt O00487); assay: inhibition of proteasome subunit RPN11 – biochemical, fluorescence polarization, uHTS hits, confirmation (AID 602368); type: functional
# [32] = biological target: 72 kDa type IV collagenase (Homo sapiens, UniProt P08253); assay: Dose Response validation of uHTS RPN11 inhibitor hits using a MMP-2 Fluorescence assay.; type: functional
# Prothrombin = Prothrombin (Bos taurus, UniProt P00735); assay: thrombin protease inhibitors – biochemical, fluorescence polarization, uHTS hits, dose response (AID 602369); type: functional
# [33] = viability loss in THP-1 monocytes – THP-1 cells, cytotoxicity control for Vif-APOBEC3G degradation inhibitor project, dose response (AID 1117359); type: functional; settings: THP-1
# T1 sequence (Q92731 whole entry): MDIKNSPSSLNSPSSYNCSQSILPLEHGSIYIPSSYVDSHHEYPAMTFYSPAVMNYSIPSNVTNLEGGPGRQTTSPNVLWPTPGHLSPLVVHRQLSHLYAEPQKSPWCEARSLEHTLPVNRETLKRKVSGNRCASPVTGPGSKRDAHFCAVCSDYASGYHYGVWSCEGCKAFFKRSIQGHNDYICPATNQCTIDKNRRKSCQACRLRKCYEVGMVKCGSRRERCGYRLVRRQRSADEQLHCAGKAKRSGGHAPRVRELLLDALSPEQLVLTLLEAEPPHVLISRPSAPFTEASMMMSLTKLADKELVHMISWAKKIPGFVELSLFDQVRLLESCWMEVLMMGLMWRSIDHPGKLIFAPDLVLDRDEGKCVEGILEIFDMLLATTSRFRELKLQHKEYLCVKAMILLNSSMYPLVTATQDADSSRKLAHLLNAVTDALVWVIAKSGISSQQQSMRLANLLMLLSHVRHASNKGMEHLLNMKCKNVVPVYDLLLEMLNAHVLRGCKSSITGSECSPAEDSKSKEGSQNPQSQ
# Induced myeloid leukemia cell differentiation protein Mcl-1, sequence (Q07820 whole entry): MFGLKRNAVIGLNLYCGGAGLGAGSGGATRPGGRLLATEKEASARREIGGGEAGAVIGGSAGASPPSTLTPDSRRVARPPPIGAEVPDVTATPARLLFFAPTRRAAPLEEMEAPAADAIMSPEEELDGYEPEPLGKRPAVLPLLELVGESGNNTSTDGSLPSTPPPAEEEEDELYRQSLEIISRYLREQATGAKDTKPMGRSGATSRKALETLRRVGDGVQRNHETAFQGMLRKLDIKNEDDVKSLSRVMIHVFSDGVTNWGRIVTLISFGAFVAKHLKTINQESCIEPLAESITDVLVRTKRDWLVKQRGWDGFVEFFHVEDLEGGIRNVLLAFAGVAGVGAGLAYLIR
# Bcl-2-like protein 1, sequence (Q07817 whole entry): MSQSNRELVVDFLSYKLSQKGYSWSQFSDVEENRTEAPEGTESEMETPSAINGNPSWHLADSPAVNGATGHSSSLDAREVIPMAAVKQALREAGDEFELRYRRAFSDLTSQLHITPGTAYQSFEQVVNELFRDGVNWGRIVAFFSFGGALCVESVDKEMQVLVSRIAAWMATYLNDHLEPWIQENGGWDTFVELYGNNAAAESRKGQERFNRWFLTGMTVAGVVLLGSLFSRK
# 72 kDa type IV collagenase, sequence (P08253 whole entry): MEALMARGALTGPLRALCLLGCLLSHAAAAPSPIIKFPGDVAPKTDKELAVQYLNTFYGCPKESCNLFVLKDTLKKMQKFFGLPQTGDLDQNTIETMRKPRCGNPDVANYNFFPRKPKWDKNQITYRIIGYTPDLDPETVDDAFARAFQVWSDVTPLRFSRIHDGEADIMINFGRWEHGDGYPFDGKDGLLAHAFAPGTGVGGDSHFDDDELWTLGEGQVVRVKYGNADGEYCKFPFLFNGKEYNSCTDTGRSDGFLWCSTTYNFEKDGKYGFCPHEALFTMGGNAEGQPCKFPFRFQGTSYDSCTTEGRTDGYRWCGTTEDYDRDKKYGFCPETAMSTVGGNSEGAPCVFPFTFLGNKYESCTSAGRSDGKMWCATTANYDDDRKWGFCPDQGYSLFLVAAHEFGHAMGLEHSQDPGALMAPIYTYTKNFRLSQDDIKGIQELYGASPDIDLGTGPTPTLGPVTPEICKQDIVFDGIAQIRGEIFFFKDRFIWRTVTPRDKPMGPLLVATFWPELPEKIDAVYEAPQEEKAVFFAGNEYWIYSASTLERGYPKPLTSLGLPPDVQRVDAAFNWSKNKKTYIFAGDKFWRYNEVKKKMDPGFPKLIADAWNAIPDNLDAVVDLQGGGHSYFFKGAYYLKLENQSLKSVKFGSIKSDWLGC
# 26S proteasome non-ATPase regulatory subunit 14, sequence (O00487 whole entry): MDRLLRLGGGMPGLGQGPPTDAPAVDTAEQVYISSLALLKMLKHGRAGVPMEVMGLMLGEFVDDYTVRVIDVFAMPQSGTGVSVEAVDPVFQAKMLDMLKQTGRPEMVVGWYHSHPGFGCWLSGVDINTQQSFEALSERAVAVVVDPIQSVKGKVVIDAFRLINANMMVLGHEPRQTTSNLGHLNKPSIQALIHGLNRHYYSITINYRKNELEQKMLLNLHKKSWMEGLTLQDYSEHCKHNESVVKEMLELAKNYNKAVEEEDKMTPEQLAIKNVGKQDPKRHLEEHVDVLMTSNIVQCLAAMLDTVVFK
smiles,measurement,setting,value
O=c1[nH]cc(F)c(=O)[nH]1 [FLUOROURACIL],IC50,[1],> 10 µM (inactive)
same,IC50,[2],> 20 µM (inactive)
same,IC50,[3],> 20 µM (inactive)
same,IC50,[4],> 20 µM (inactive)
same,IC50,[5],> 20 µM (inactive)
same,IC50,[6],> 10 µM (inactive)
same,IC50,[7],> 20 µM (inactive)
same,IC50,[8],> 20 µM (inactive)
CCCn1c(O)nnc1Sc1nnnn1-c1ccccc1,EC50,[9],40.1 µM (active)
same,EC50,[10],6.75 µM (active)
same,EC50,H4,> 120 µM (not active)
same,IC50,[11],> 100 µM (active)
O=C(Cn1cnc2sc(-c3ccccc3)cc2c1=O)NCc1ccco1,IC50,[12],5.16 µM (active)
same,IC50,Bcl-2-like protein 1,> 109 µM (not active)
O=C(Nc1sc2c(c1C(=O)O)CCC2)c1ccccc1,IC50,Estrogen receptor beta [13],6.88 µM (active)
same,IC50,Estrogen receptor beta [14],> 109 µM (not active)
same,IC50,[15],12.1 µM (active)
COc1ccccc1N1CCN(S(=O)(=O)c2c[nH]cn2)CC1,IC50,[16],> 100 µM (not active)
O=S(=O)(Nc1ccc(N2CCOCC2)cc1)c1ccccc1,IC50,[11],> 100 µM (active)
CCOC(=O)c1s/c(=N\C(=O)/C=C/c2cccs2)n(C)c1C,EC50,[17],2.23 µM (active)
same,EC50,[10],< 0.1 µM (inconclusive)
same,EC50,H4,1.08 µM (active)
same,EC50,[18],> 12 µM (not active)
same,EC50,[19],0.315 µM (active)
CC(C)(C)OC(=O)c1c(N)n(Cc2ccco2)c2nc3ccccc3nc12,IC50,[16],> 100 µM (not active)
CC(C)Cc1ccc(/C=C/C(=O)N2CCOCC2)cc1,EC50,[17],0.682 µM (active)
same,EC50,[10],< 0.1 µM (inconclusive)
same,EC50,H4,0.843 µM (active)
same,EC50,[18],0.374 µM (active)
same,EC50,[19],0.25 µM (active)
COc1cc(NC(=O)c2cc3nc(C)cc(C)n3n2)c(OC)cc1Cl,EC50,[17],0.389 µM (active)
same,EC50,[10],0.278 µM (active)
same,EC50,H4,< 0.1 µM (active)
same,EC50,[18],0.323 µM (active)
same,EC50,[19],0.392 µM (active)
CN1CCN(c2cc3c(c4c2[nH]c2ccccc24)C(=O)CC(C)(C)C3)CC1,CC50,[20],15.6 µM (active)
same,EC50,[21],13.2 µM (active)
same,EC50,[22],12.9 µM (active)
same,EC50,[23],11.4 µM (active)
same,EC50,[24],10.4 µM (active)
same,AC50,[25],7.77 µM (active)
same,AC50,[26],9.48 µM (active)
CCOc1ccccc1N1C(=O)NC(=O)/C(=C\Nc2ccc(N(CC)CC)cc2)C1=O,EC50,[27],> 300 µM (not active)
same,EC50,[28],> 300 µM (inconclusive)
same,AC50,[29],40.9 µM (active)
same,AC50,[30],51 µM (active)
same,IC50,[31],18.3 µM (active)
same,IC50,[32],> 100 µM (inactive)
same,IC50,Prothrombin,13.4 µM (active)
same,CC50,[33],26 µM (active)
same,IC50,[11],> 57.5 µM (active)
